According to patent EP0417631A2, “Condensed diazepinones, process for their preparation, and medicaments containing these compounds” (Dr. Karl Thomae GmbH, priority 1989, dated 1991):

Tested on: M-Rezeptoren der Bronchien, des Herzens und der Harnblase
Test: Effect on M receptors of bronchi, heart and urinary bladder of anaesthetised guinea pigs (acetylcholine-induced bronchoconstriction, bradycardia, bladder tension)
Assay type: in vivo, Meerschweinchen
Source text: 1. Wirkung auf M-Rezeptoren der Bronchien, des Herzens und der Harnblase anaesthetisierter Meerschweinchen
Meerschweinchen beiderlei Geschlechts (550-600 g Körpergewicht) wurden mit Urethan (1,4 gikg, i.p.) anaesthetisiert. Eine Kanüle wurde zur Injektion der Wirkstoffe in die Jugularvene eingeführt. 220 1.U."kg Heparin wurden intravenös injiziert. Es wurde eine Kanüle in die Trachea eingeführt; die Tiere wurden künstlich mit sauerstoffangereicherter Luft mittels einer positiven Druckpumpe (Braun-Melsungen) bei einer Rate von 80 Schlägen pro Minute beatmet. Ein Ast der Trachealkanüle wurde mit einem Wassermanometer von 10 cm Höhe verbunden. Das Beatmungsvolumen wurde so eingestellt, daß der maximale intratracheale Druck während der Beatmung gerade den Druck einer 10 cm-Wassersäule erreichte.
Die Werte wurden mit einem IFD Aufnahmegerät registriert. Vor dem Versuch wurde die Trachea für eine kurze Zeit abgeklemmt, um den maximal möglichen Grad der Bronchokonstriktion zur Kalibrierung zu erzeugen. […] Die Herzfrequenz wurde mit einem Frequenzmesser, der durch arterielle Pulswellen ausgelöst wird, gemessen.
Es wurde ein kleiner medianer Bauchschnitt gesetzt und die Harnblase an einem Kraft-Transducer unter einer Ruhespannung von 1 Gramm angebunden.
Die zu testenden Wirksubstanzen wurden über die Jugularvene injiziert, 5 Minuten später wurde die Spannungszunahme der Blase (in Gramm), der Bronchialwiderstand (in %) und die Abnahme der Herzfrequenz (Schläge pro Minute) nach Gabe von Acetylcholin (50 ug/kg i.v. und i.a.) gemessen. Es wurden dosis-abhängige Kurven durch Wiedergabe der prozentualen Hemmung der Bronchokonstriktion, Bradycardie und der Spannungszunahme der Blase gegen den Logarithmus der Dosis (mol/kg) der zu untersuchenden Wirkstoffe aufgezeichnet. Die Ergebnisse werden angegeben als Mittel- werte (n=4-6). Ergebnisse siehe Tabelle I.

[1] = qualitative statement on reference substances, summing up the tests of Tabelle I-III

CN1C2CCC1CC(OC(=O)C(CO)c1ccccc1)C2 (racemic) [Z, Atropin]
Selektivität (glatte Muskulatur gegenüber Herzfrequenz oder Speichelsekretion) (in vivo): keine Selektivität

CCN(CC)CC1CCCCN1CC(=O)N1c2ccccc2C(=O)Nc2cccnc21 (stereo not drawn) [X, 11-[[2-[(Diethylamino)methyl]-1-piperidinyl]acetyl]-5,11-dihydro-6H-pyrido[2,3-b][1,4]benzodiazepin-6-on]
Selektivität (glatte Muskulatur gegenüber Herzfrequenz oder Speichelsekretion) [1]: höhere Wirksamkeit auf kardiale Muskarinrezeptoren

CN1CCN(CC(=O)N2c3ccccc3C(=O)Nc3cccnc32)CC1 [Y, 5,11-Dihydro-11-[(4-methyl-1-piperazinyl)acetyl]-6H-pyrido[2,3-b][1,4]benzodiazepin-6-on]
Selektivität (glatte Muskulatur gegenüber Herzfrequenz oder Speichelsekretion) [1]: keine Selektivität
